Where a chain is given by its changes, count along the chain named. Read-outs that look alike come from different tables or passages of the source. Marks after values point to notes of the source that are not given here. Where a SMILES comes first, the peptide text is derived from it. Bridges are numbered along the chain shown (N, C = ends).
Columns and labels:
RGS4 [1] = molecular target: T1, RGS4 (Rattus norvegicus, UniProt P49799); assay: FCPIA (flow cytometry protein interaction assay), RGS4-Gαo interaction, wild type RGS4 (MBP-RGS4Δ51N); assay type: binding; conditions: 100 μM
T1 construct: made in house
T1 sequence (P49799 52-205 limits assumed): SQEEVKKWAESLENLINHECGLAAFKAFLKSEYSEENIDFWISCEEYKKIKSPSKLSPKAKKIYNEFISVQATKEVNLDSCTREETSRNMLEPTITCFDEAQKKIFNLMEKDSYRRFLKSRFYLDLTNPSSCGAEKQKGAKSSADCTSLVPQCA

RGS4 [2] = molecular target: T1, RGS4; assay: as above; assay type: binding; conditions: peptide 50 μM; 25 nM Gαo-Alexa Fluor-532, 5 nM RGS4-biotin
Protocol: (§1) We recently described a bead-based screen in which 2.5 × 10^6 different peptide sequences were prepared as a OBOC library. Fluorescently labeled RGS4 was used to probe the library for peptides that bind RGS4 [5]. […] Since the majority of those hit peptides could bind tightly to the RGS without disrupting GAP activity, they were also tested in the flow cytometry protein interaction assay (FCPIA) (Figure 1), which measures the interaction between RGS4 and Gαo. In this method we used a Luminex flow cytometer to detect the binding of Alexa Fluor 532-labeled Gαo to biotinylated RGS4 on avidin beads in the presence of AMF (AlCl3, MgCl2, NaF and GDP) to put the Gα subunit into a transition state-like conformation. Peptides were tested at 50 μM except where limited by solubility (Table 1).
Figure 1 Hit peptides in the FCPIA. Hit peptides from Roof, et al. 2008 were tested at 50 μM unless otherwise indicated for ability to disrupt the RGS4-Gαo interaction as described using 25 nM Gα o-Alexa Fluor-532 and 5 nM wild type RGS4-biotin (mean ± S.E.M., n ≥ 3) *p < 0.05, **p < 0.01, ***p < 0.001 compared to no peptide.
(§2) Proteins were expressed, purified and labeled as described previously. The mutagenesis was done using the "QuickChange Multi Site-Directed Mutagenesis Kit" from Stratagene according to the manufacturer's protocol. The construct of RGS4 used in these studies is a maltose binding protein (MBP-) fusion protein of the RGS4 sequence from which the amphipathic N-terminal helix has been removed (i.e. MBP-RGS4Δ51N). For simplicity in the text, this will be referred to as RGS4. All other RGS proteins were human sequences and were used as Mpb fusions: RGS7 RGS domain (aa: 305–453), RGS8 full length, RGS16 full length, and RGS19ΔC11 (amino acids 1–209). To cleave RGS4Δ51N from the MBP-His6 construct for MS analysis, MBP-His6-RGS4Δ51N was treated with 15% MBP-His6-TEV protease S219V [11] for 22 hours at 4°C and purified over a Ni-NTA column.
(§3) FCPIA was performed as previously published.

RGS4 -7C = molecular target: T2, RGS4 -7C (Rattus norvegicus, UniProt P49799, C132A/C148A/C183A/C197A/C204A/C71A/C95A); assay: FCPIA, RGS4 -7C mutant (all 7 cysteines removed); assay type: binding; conditions: read-out: 5nd logIC50 (converted)
T2 construct: made in house
Protocol: (§4) Since 5nd forms an irreversible, DTT-sensitive bond with RGS, it was suspected that it binds covalently to a cysteine in the protein through a disulfide bridge. Indeed, removal of all 7 cysteines (termed the -7C mutant) from RGS4 greatly diminished 5nd activity (logIC50 of -3.24 ± 0.14 for -7C vs. -4.36 ± 0.02 for wild type) (Figure 5, Table 2).
(§5) Figure 5 Dose curves of 5nd on various RGS4 cysteine mutants. Various concentrations of 5nd were tested for disruption of the RGS4-Gαo interaction for C95A (5 nM), or […], C71A (5nM) or C148A (5nM) (B), A95C in the -7C (5nM), or A132C in the -7C (5nM) (C), A71C in the -7C (5nM), or A148C in the -7C (5nM) (D) or the mutant with no cysteines in the domain (20 nM) or the C-terminus (20 nM) (E) in the FCPIA (mean ± S.E.M., n ≥ 3).
(§6) Proteins were expressed, purified and labeled as described previously. The mutagenesis was done using the "QuickChange Multi Site-Directed Mutagenesis Kit" from Stratagene according to the manufacturer's protocol. The construct of RGS4 used in these studies is a maltose binding protein (MBP-) fusion protein of the RGS4 sequence from which the amphipathic N-terminal helix has been removed (i.e. MBP-RGS4Δ51N). For simplicity in the text, this will be referred to as RGS4. […]

RGS8 = molecular target: T3, RGS8 (Homo sapiens, UniProt P57771); assay: FCPIA, Gαo binding to RGS8
T3 construct: RGS8 full length; made in house
T3 sequence (P57771 1-180): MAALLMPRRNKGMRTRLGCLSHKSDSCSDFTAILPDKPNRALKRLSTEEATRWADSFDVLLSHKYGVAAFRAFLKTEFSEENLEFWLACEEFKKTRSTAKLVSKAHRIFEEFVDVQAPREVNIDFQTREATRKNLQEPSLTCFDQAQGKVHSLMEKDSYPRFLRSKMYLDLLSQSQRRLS
Protocol: as §1
5nd inhibited Gαo binding to a number of different RGS proteins (Figure 2). […] RGS19 and RGS7 are in the RZ and R7 families, respectively and show less inhibition by 5nd. Linear as well as bridged versions of peptide 5 were tested in the FCPIA since cyclization yields would most likely have been less then 100% in the synthesis of the library leaving some linear peptides present on each bead. […] This may be due to lack of structural rigidity necessary for the correct interaction of the peptide with the RGS protein or a role for chemical reactivity of the disulfide.
Figure 2 Characterization of hit 5. A) and B) Dose response curves for 5nd in the FCPIA with different RGS proteins (RGS Family), (mean ± S.E.M., n = 3) *p < 0.05, **p < 0.01, ***p < 0.001 compared to RGS4 at the same 5nd concentration. C) Peptides were tested at 50 μM as in Figure 1, (mean ± S.E.M., n ≥ 3) *p < 0.05, **p < 0.01, ***p < 0.001 compared to no peptide.
Figure 3 Irreversibility experiments. RGS-biotin on avidin beads was treated with 5nd (100 μM) or 5nm (100 μM) and then washed in buffer (with or without 1 mM DTT) or not washed and put in the FCPIA using RGS4 (A) or RGS8 (B) (mean ± S.E.M., n ≥ 2) *p < 0.05, **p < 0.01, ***p < 0.001 compared to no peptide (100%); #p < 0.05, ##p < 0.01, ###p < 0.001 compared to 5nd no wash.
as §2, with “To cleave RGS4Δ51N from the MBP-His6 construct for MS analysis, MBP-His6-RGS4Δ51N was treated with 15% MBP-His6-TEV protease S219V [11] for 22 hours at 4°C and purified over a Ni-NTA column.” left out

RGS4 C95A = molecular target: T4, RGS4 C95A (Rattus norvegicus, UniProt P49799, C95A); assay: FCPIA, RGS4 cysteine mutant C95A; assay type: binding; conditions: read-out: 5nd logIC50 (converted)
T4 construct: made in house
T4 sequence (P49799 52-205 C95A limits assumed): T1 sequence (P49799 52-205 limits assumed) with C44A
Protocol: as §5, §2, §3

[3] = test system: RGS4 no Cys in C-terminus; assay: FCPIA, RGS4 mutant with no Cys in C-terminus; assay type: binding
Protocol: as §4, §5, §6

T2 sequence (P49799 52-205 C71A/C95A/C132A/C148A/C183A/C197A/C204A): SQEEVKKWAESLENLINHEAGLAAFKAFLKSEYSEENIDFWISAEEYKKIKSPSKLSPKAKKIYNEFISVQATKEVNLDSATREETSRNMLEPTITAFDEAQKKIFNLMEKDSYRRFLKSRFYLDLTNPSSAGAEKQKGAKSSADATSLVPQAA

`CC(C)C[C@@H]1NC(=O)CNC(=O)[C@H](CCCCN)NC(=O)[C@@H](NC(=O)[C@H](Cc2c[nH]c3ccccc23)NC(=O)[C@@H](N)Cc2ccc(O)cc2)CSSC[C@@H](C(=O)N[C@@H](CCCCN)C(N)=O)NC1=O` [Peptide 5nd, Tyr-Trp-c [Cys-Lys-Gly-Leu-Cys]-Lys-NH2, S-S] (H-YWCKGLCK-NH2; disulfide 3-7) was tested, and the inhibition at 100 µM (RGS4 [1]; beads washed in buffer with 1 mM DTT, read-out: percent inhibition of RGS4-Gαo after DTT wash) was 15 ± 4%, the inhibition at 100 µM (RGS4 [1]; beads washed in buffer without DTT, read-out: percent inhibition of RGS4-Gαo remaining after washing of the beads) was 75 ± 11% and the “% Inhibition of RGS4-Gαo” value (RGS4 [2]) was 80 ± 5*** %. For the same compound, the IC50 (RGS4 -7C) was 575 µM, the inhibition at 100 µM (RGS8; beads washed in buffer with 1 mM DTT, read-out: percent inhibition, RGS8, DTT wash) was 10 ± 3% and the inhibition at 100 µM (RGS8; beads washed in buffer without DTT, read-out: percent inhibition, RGS8, wash) was 50 ± 3%. The inhibition at 100 µM (RGS8; no wash, read-out: percent inhibition, RGS8) was 64 ± 2%, the IC50 (RGS4 C95A) was 19.5 µM and the “5nd logIC50” value [3] was -4.39 ± 0.07 M.
